Assay results from US7709498B2, “Quinoline derivatives as antibacterial agents” (Janssen Pharmaceutica N.V., priority 2005, dated 2010).
≈ marks a conversion by molar mass, not a printed value.

What was measured:
Type in all cases: cell-based
[1] = tested on: Bacillus subtilis (ATCC43639); assay: Microtitre plate assay, IC90 determination, BSU 43639; settings: Bacillus subtilis, ATCC43639, 24 h, 90% inhibitory concentration for bacterial growth, 37° C., resazurin fluorescence, read-out: IC90 (μg/ml) BSU 43639
Description: (§1) The bacteria used in this study were grown overnight in flasks containing 100 ml Mueller-Hinton Broth (Becton Dickinson—cat. no. 275730) in sterile de-ionized water, with shaking, at 37° C. Stocks (0.5 ml/tube) were stored at −70° C. until use. Bacteria titrations were performed in microtiter plates to detect the TCID50, in which the TCID50 represents the dilution that gives rise to bacterial growth in 50% of inoculated cultures.
(§2) In general, an inoculum level of approximately 100 TCID50 was used for susceptibility testing.
(§3) Flat-bottom, sterile 96-well plastic microtiter plates were filled with 180 μl of sterile deionized water, supplemented with 0.25% BSA. Subsequently, stock solutions (7.8× final test concentration) of compounds were added in 45 μl volumes in column 2. Serial five-fold dilutions (45 μl in 180 μl) were made directly in the microtiter plates from column 2 to reach column 11. Untreated control samples with (column 1) and without (column 12) inoculum were included in each microtiter plate. Depending on the bacteria type, approximately 10 to 60 CFU per well of bacteria inoculum (100 TCID50), in a volume of 100 μl in 2.8× Mueller-Hinton broth medium, was added to the rows A to H, except column 12. The same volume of broth medium without inoculum was added to column 12 in row A to H. The cultures were incubated at 37° C. for 24 hours under a normal atmosphere (incubator with open air valve and continuous ventilation). At the end of incubation, one day after inoculation, the bacterial growth was quantitated fluorometrically. Therefore resazurin (0.6 mg/ml) was added in a volume of 20 μl to all wells 3 hours after inoculation, and the plates were re-incubated overnight. A change in colour from blue to pink indicated the growth of bacteria. The fluorescence was read in a computer-controlled fluorometer (Cytofluor Biosearch) at an excitation wavelength of 530 nm and an emission wavelength of 590 nm. The % growth inhibition achieved by the compounds was calculated according to standard methods. The IC90 (expressed in μg/ml) was defined as the 90% inhibitory concentration for bacterial growth.
(§4) BSU 3639 means Bacillus subtilis (ATCC43639); ECO 25922 means Escherichia coli (ATCC25922); EFA 14506 means Enterococcus faecalis (ATCC14506); EFA 29212 means Enterococcus faecalis (ATCC29212); LMO 49594 means Listeria monocytogenes (ATCC49594); PAE 27853 means Pseudomonas aeruginosa (ATCC27853); SMU 33402 means Streptococcus mutans (ATCC33402); SPN 6305 means Streptococcus pneumoniae (ATCC6305); SPY 8668 means Streptococcus pyogens (ATCC8668); STA 43300 means Staphylococcus aureus (ATCC43300); STA 25923 means Staphylococcus aureus (ATCC25923); STA 29213 means Staphylococcus aureus (ATCC29213); STA RMETH means methicilline resistant Staphylococcus aureus (MRSA) (a clinical isolate from the University of Antwerp). ATCC means American type tissue culture.

[2] = tested on: Streptococcus pneumoniae (ATCC6305); assay: Microtitre plate assay, IC90 determination, SPN 6305; settings: 90% inhibitory concentration for bacterial growth, 37° C., resazurin fluorescence; for IC90: Streptococcus pneumoniae, ATCC6305, 24 h, read-out: IC90 (μg/ml) SPN 6305; for IC90 (μg/ml) SPN 6305: 24 hours
Description: as §1, §2, §3, §4

[3] = tested on: Pseudomonas aeruginosa (ATCC27853); assay: Microtitre plate assay, IC90 determination, PAE 27853; settings: 90% inhibitory concentration for bacterial growth, 37° C., resazurin fluorescence; for IC90: Pseudomonas aeruginosa, ATCC27853, 24 h, read-out: IC90 (μg/ml) PAE 27853
Description: as §1, §2, §3, §4

[4] = tested on: Streptococcus mutans (ATCC33402); assay: Microtitre plate assay, IC90 determination, SMU 33402; settings: 90% inhibitory concentration for bacterial growth, 37° C., resazurin fluorescence; for IC90: Streptococcus mutans, ATCC33402, 24 h, read-out: IC90 (μg/ml) SMU 33402; for IC90 (μg/ml) SMU 33402: 24 hours
Description: as §1, §2, §3, §4

[5] = tested on: Streptococcus pyogens (ATCC8668); assay: Microtitre plate assay, IC90 determination, SPY 8668; settings: 90% inhibitory concentration for bacterial growth, 37° C., resazurin fluorescence; for IC90: Streptococcus, ATCC8668, 24 h, read-out: IC90 (μg/ml) SPY 8668; for IC90 (μg/ml) SPY 8668: 24 hours
Description: as §1, §2, §3, §4

[6] = tested on: Listeria monocytogenes (ATCC49594); assay: Microtitre plate assay, IC90 determination, LMO 49594; settings: 90% inhibitory concentration for bacterial growth, 37° C., resazurin fluorescence; for IC90: Listeria monocytogenes, ATCC49594, 24 h, read-out: IC90 (μg/ml) LMO 49594; for IC90 (μg/ml) LMO 49594: 24 hours
Description: as §1, §2, §3, §4

[7] = tested on: Staphylococcus aureus (ATCC43300); assay: Microtitre plate assay, IC90 determination, STA 43300; settings: Staphylococcus aureus, ATCC43300, 24 h, 90% inhibitory concentration for bacterial growth, 37° C., resazurin fluorescence, read-out: IC90 (μg/ml) STA 43300
Description: as §1, §2, §3, §4

[8] = tested on: Enterococcus faecalis (ATCC29212); assay: Microtitre plate assay, IC90 determination, EFA 29212; settings: 90% inhibitory concentration for bacterial growth, 37° C., resazurin fluorescence; for IC90 (μg/ml) EFA 29212: 24 hours; for IC90: Enterococcus faecalis, ATCC29212, 24 h, read-out: IC90 (μg/ml) EFA 29212
Description: as §1, §2, §3, §4

[9] = tested on: Staphylococcus aureus (ATCC25923); assay: Microtitre plate assay, IC90 determination, STA 25923; settings: 90% inhibitory concentration for bacterial growth, 37° C., resazurin fluorescence
Description: as §1, §2, §3, §4

**Q.** With `COc1nc2ccc(-c3ccc(CO)o3)cc2cc1C(c1ccccc1)C(O)(CCN(C)C)c1cccc2ccccc12` (stereo not shown) [Compound 212] as the compound, how does the IC90 [1] read?
**A.** The IC90 was 11.4 µg/mL (≈ 19.9 µM).

**Q.** With `COc1nc2ccc(Br)cc2cc1C(c1ccccc1)C(O)(CCN1CCCCC1)c1ccccc1` (stereo not shown) [Compound 48] as the compound, how does the IC90 [2] read?
**A.** Its IC90 is 13.7 µg/mL (≈ 25.1 µM).

**Q.** And the IC90 [3]?
**A.** The IC90 was 10.9 µg/mL (≈ 20 µM).

**Q.** What about the IC90 [4] of the same compound?
**A.** The IC90 was 10.9 µg/mL (≈ 20 µM).

**Q.** And the IC90 [5]?
**A.** The IC90 was 13.7 µg/mL (≈ 25.1 µM).

**Q.** And the IC90 [6]?
**A.** The IC90 was 10.9 µg/mL (≈ 20 µM).

**Q.** Which results are given for `COc1nc2ccc(Cl)cc2cc1C(c1ccccc1)C(O)(CCN(C)C)c1ccccc1` (stereo not shown) [Compound 31]?
**A.** IC90 [7]: 11.6 µg/mL (≈ 25.2 µM); IC90 [2]: 5.2 µg/mL (≈ 11.3 µM); IC90 [3]: 10.3 µg/mL (≈ 22.3 µM); IC90 (μg/ml) EFA 29212 [8]: 4.6 µg/mL (≈ 9.98 µM); IC90 [4]: 10.3 µg/mL (≈ 22.3 µM); IC90 (μg/ml) SPY 8668 [5]: 1.8 µg/mL (≈ 3.9 µM); IC90 (μg/ml) LMO 49594 [6]: 4.1 µg/mL (≈ 8.89 µM); IC90 [1]: 10.3 µg/mL (≈ 22.3 µM)

**Q.** How did the “IC90 (μg/ml) STA 25923” value ([9]; 24 hours) turn out when `CCNCCC(O)(c1ccc(F)cc1F)C(c1ccccc1)c1cc2cc(Br)ccc2nc1OC` (racemic) [B] was run?
**A.** Its value is 8.6 µg/mL (≈ 15.9 µM).

**Q.** What does the source list for `COc1nc2ccc(Br)cc2cc1C(c1ccccc1)C(O)(CCN(C)C)c1cccs1` (stereo not shown) [Compound 21]?
**A.** IC90 [7]: 12.8 µg/mL (≈ 25 µM); IC90 (μg/ml) SPN 6305 [2]: 12.8 µg/mL (≈ 25 µM); IC90 [8]: 11.5 µg/mL (≈ 22.5 µM); IC90 [4]: 11.5 µg/mL (≈ 22.5 µM); IC90 [6]: 4.6 µg/mL (≈ 8.99 µM)

**Q.** For `COc1nc2ccc(Br)cc2cc1C(c1ccccc1)C(O)(CCN(C)C)c1ccsc1` (stereo not shown) [Compound 25], which IC90 [7] is on record?
**A.** The IC90 was 12.8 µg/mL (≈ 25 µM).

**Q.** What about the “IC90 (μg/ml) SPN 6305” value [2] of the same compound?
**A.** Its value is 12.8 µg/mL (≈ 25 µM).

**Q.** What about the IC90 [8] of the same compound?
**A.** Its IC90 is 11.5 µg/mL (≈ 22.5 µM).

**Q.** And the IC90 [4]?
**A.** Its IC90 is 11.5 µg/mL (≈ 22.5 µM).

**Q.** What about the IC90 [5] of the same compound?
**A.** The IC90 was 4.1 µg/mL (≈ 8.02 µM).

**Q.** And the IC90 [6]?
**A.** Its IC90 is 11.5 µg/mL (≈ 22.5 µM).

**Q.** `COc1nc2ccc(Br)cc2cc1C(c1ccccc1)C(O)(CCN)c1ccccc1` (stereo not shown) [Compound 44] was tested. Which IC90 ([9]; Staphylococcus aureus, ATCC25923, 24 h, read-out: IC90 (μg/ml) STA 25923) did it give?
**A.** The IC90 was 7.6 µg/mL (≈ 15.9 µM).

**Q.** And the IC90 [1]?
**A.** The IC90 was 7.6 µg/mL (≈ 15.9 µM).

**Q.** How did the IC90 [7] turn out when `COc1nc2ccc(Br)cc2cc1C(c1ccccc1)C(O)(CCN(C)C)c1ccccc1` (single isomer, unassigned) [E] was run?
**A.** Its IC90 is 12.7 µg/mL (≈ 25.1 µM).

**Q.** And the “IC90 (μg/ml) SPN 6305” value [2]?
**A.** Its value is 5.7 µg/mL (≈ 11.3 µM).

**Q.** What about the IC90 [3] of the same compound?
**A.** The IC90 was 10.1 µg/mL (≈ 20 µM).

**Q.** And the IC90 [8]?
**A.** Its IC90 is 11.3 µg/mL (≈ 22.4 µM).

**Q.** And the “IC90 (μg/ml) SMU 33402” value [4]?
**A.** The value was 10.1 µg/mL (≈ 20 µM).

**Q.** And the “IC90 (μg/ml) SPY 8668” value [5]?
**A.** The value was 5.1 µg/mL (≈ 10.1 µM).

**Q.** What about the IC90 [6] of the same compound?
**A.** Its IC90 is 7.1 µg/mL (≈ 14 µM).

**Q.** And the IC90 [1]?
**A.** Its IC90 is 12.7 µg/mL (≈ 25.1 µM).

**Q.** Which results are given for `COc1nc2ccc(Br)cc2cc1C(c1ccccc1)C(O)(CCN(C)C)c1ccc2ccccc2c1` (stereo not shown) [Compound 46]?
**A.** IC90 [7]: 5.6 µg/mL (≈ 10.1 µM); IC90 [2]: 2.8 µg/mL (≈ 5.04 µM); IC90 [3]: 5 µg/mL (≈ 9 µM); IC90 [8]: 5 µg/mL (≈ 9 µM); IC90 [4]: 5.6 µg/mL (≈ 10.1 µM); IC90 [5]: 0.6 µg/mL (≈ 1.08 µM); IC90 [6]: 2.8 µg/mL (≈ 5.04 µM)

**Q.** How did the “IC90 (μg/ml) SPN 6305” value [2] turn out when `COc1nc2ccc(Cl)cc2cc1C(c1ccccc1)C(O)(CCN(C)C)c1ccccc1` (stereo not shown) [Compound 30] was run?
**A.** The value was 5.2 µg/mL (≈ 11.3 µM).

**Q.** What about the “IC90 (μg/ml) PAE 27853” value ([3]; 24 hours) of the same compound?
**A.** The value was 9.2 µg/mL (≈ 20 µM).

**Q.** What about the “IC90 (μg/ml) EFA 29212” value [8] of the same compound?
**A.** The value was 10.3 µg/mL (≈ 22.3 µM).

**Q.** What about the “IC90 (μg/ml) SMU 33402” value [4] of the same compound?
**A.** Its value is 10.3 µg/mL (≈ 22.3 µM).

**Q.** And the “IC90 (μg/ml) SPY 8668” value [5]?
**A.** The value was 10.3 µg/mL (≈ 22.3 µM).

**Q.** And the “IC90 (μg/ml) LMO 49594” value [6]?
**A.** Its value is 10.3 µg/mL (≈ 22.3 µM).

**Q.** For `COc1nc2ccc(Br)cc2cc1C(c1ccccc1)C(O)(CCN(C)C)c1ccc(Cl)cc1` (stereo not shown) [Compound 16], which IC90 [3] is on record?
**A.** The IC90 was 13.6 µg/mL (≈ 25.2 µM).

**Q.** For `CCN(CC)CCC(O)(c1ccccc1)C(c1ccccc1)c1cc2cc(Br)ccc2nc1OC` (stereo not shown) [Compound 18], which “IC90 (μg/ml) SPN 6305” value [2] is on record?
**A.** The value was 0.7 µg/mL (≈ 1.31 µM).

**Q.** And the IC90 [8]?
**A.** Its IC90 is 13.3 µg/mL (≈ 24.9 µM).

**Q.** And the IC90 [6]?
**A.** The IC90 was 13.3 µg/mL (≈ 24.9 µM).

**Q.** Which IC90 [3] does the source give for `COc1nc2ccc(Br)cc2cc1C(c1ccccc1)C(O)(CCN(C)C)c1ccc2c(c1)OCO2` (stereo not shown) [Compound 76] here?
**A.** The IC90 was 11 µg/mL (≈ 20 µM).

**Q.** What about the IC90 [6] of the same compound?
**A.** Its IC90 is 11 µg/mL (≈ 20 µM).
